{
  "source": "ChEMBL document CHEMBL5291721",
  "about": "“A preclinical secondary pharmacology resource illuminates target-adverse drug reaction associations of marketed drugs” (Nat Commun, 2023); note: assay procedure not described here",
  "key": {"[1]": {"molecular_target": "T1, Muscarinic acetylcholine receptor M4 (Homo sapiens, UniProt P08173)", "T1 sequence (P08173 whole entry)": "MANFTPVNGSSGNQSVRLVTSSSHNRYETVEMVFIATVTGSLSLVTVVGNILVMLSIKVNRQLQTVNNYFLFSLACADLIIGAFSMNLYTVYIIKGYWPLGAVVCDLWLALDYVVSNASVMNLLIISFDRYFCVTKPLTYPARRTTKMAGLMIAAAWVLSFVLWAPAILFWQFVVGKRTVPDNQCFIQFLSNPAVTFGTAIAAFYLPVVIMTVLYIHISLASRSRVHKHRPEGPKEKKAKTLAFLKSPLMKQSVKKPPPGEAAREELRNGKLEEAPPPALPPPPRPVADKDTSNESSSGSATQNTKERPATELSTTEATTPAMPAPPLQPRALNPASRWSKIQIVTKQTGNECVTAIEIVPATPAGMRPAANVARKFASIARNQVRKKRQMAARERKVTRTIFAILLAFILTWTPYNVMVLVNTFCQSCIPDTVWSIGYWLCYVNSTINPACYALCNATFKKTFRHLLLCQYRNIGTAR"}, "[2]": {"molecular_target": "Epidermal growth factor receptor (Homo sapiens, UniProt P00533)", "sequence (P00533 whole entry)": "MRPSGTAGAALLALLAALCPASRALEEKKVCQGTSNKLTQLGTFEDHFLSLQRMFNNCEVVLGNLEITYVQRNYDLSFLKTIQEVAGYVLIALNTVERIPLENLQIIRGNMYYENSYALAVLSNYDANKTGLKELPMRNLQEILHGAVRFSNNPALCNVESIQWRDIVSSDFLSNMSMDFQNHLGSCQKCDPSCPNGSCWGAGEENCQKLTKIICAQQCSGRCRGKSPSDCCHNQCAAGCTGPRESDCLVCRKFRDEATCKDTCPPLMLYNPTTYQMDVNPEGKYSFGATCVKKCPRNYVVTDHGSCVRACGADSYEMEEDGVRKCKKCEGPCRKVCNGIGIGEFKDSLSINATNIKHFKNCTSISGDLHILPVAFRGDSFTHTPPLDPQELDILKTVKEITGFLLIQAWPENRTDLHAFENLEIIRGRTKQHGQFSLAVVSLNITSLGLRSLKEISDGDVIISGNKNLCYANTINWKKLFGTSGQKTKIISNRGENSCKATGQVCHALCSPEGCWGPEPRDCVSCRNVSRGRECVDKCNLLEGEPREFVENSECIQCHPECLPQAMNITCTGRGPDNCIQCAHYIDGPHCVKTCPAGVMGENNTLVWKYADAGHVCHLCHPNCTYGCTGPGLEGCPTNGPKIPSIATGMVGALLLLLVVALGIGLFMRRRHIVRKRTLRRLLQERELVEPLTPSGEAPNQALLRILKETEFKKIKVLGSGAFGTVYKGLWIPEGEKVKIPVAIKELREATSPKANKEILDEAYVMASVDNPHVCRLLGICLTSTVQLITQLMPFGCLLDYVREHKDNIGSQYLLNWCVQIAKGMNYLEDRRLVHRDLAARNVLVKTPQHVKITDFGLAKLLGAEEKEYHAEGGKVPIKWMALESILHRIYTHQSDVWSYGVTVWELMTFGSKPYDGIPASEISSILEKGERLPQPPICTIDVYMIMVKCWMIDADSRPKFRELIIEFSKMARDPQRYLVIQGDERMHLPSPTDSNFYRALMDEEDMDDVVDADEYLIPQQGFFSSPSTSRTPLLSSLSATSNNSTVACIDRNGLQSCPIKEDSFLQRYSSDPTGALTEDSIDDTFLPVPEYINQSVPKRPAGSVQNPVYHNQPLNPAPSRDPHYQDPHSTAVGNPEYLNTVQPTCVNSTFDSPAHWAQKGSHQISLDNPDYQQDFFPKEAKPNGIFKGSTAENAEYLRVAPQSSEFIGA", "type": "functional"}, "D(1A) dopamine receptor": {"molecular_target": "D(1A) dopamine receptor (Homo sapiens, UniProt P21728)", "sequence (P21728 whole entry)": "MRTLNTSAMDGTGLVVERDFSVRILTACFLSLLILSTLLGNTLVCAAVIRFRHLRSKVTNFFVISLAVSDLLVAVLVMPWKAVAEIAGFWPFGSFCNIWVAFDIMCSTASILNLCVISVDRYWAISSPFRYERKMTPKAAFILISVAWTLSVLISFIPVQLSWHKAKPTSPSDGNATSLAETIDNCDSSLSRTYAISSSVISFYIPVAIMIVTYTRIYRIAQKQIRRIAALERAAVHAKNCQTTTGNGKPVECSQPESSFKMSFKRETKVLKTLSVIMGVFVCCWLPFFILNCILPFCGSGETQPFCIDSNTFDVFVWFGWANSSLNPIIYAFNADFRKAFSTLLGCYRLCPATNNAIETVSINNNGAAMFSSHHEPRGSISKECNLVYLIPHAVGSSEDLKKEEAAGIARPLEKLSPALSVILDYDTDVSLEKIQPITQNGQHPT"}, "[3]": {"molecular_target": "T2, Alpha-2A adrenergic receptor (Homo sapiens, UniProt P08913)", "T2 sequence (P08913 whole entry)": "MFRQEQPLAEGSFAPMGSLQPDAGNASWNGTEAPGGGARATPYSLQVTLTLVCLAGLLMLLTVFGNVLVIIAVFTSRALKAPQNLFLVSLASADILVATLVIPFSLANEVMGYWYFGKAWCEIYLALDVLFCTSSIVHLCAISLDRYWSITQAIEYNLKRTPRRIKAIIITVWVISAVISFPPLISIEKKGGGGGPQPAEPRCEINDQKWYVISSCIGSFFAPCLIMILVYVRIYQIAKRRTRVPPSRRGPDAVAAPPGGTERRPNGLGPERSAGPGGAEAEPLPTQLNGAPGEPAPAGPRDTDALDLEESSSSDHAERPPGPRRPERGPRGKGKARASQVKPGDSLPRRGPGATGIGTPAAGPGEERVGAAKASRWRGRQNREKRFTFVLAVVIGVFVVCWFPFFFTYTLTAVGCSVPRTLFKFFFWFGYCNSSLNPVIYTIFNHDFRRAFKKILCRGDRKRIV"}, "[4]": {"molecular_target": "T3, 5-hydroxytryptamine receptor 1A (Homo sapiens, UniProt P08908)", "T3 sequence (P08908 whole entry)": "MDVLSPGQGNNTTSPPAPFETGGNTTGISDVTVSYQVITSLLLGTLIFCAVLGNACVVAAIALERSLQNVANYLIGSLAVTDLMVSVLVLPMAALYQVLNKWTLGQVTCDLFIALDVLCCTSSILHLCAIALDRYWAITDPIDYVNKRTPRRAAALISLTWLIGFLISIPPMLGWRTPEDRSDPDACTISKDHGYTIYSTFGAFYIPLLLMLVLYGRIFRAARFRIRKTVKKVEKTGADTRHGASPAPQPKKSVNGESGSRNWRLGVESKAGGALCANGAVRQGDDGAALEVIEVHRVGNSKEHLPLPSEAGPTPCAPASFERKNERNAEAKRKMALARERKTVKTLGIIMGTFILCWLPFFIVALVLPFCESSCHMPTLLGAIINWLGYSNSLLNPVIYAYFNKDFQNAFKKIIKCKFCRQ"}, "[5]": {"molecular_target": "T4, Muscarinic acetylcholine receptor M2 (Homo sapiens, UniProt P08172)", "T4 sequence (P08172 whole entry)": "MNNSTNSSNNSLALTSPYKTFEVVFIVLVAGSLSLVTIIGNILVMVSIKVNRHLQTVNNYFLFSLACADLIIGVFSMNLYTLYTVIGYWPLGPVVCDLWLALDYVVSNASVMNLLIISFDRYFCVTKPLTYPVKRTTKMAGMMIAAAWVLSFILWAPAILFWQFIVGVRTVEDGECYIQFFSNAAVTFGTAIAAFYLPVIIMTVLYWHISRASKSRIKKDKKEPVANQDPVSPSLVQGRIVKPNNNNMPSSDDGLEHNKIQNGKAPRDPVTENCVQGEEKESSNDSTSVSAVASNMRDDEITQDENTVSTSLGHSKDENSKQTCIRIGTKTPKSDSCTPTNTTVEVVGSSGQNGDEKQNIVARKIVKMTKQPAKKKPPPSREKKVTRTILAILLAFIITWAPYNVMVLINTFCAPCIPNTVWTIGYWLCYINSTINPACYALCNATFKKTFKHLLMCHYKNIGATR"}, "Androgen receptor": {"molecular_target": "T5, Androgen receptor (Rattus norvegicus, UniProt P15207)", "T5 sequence (P15207 whole entry)": "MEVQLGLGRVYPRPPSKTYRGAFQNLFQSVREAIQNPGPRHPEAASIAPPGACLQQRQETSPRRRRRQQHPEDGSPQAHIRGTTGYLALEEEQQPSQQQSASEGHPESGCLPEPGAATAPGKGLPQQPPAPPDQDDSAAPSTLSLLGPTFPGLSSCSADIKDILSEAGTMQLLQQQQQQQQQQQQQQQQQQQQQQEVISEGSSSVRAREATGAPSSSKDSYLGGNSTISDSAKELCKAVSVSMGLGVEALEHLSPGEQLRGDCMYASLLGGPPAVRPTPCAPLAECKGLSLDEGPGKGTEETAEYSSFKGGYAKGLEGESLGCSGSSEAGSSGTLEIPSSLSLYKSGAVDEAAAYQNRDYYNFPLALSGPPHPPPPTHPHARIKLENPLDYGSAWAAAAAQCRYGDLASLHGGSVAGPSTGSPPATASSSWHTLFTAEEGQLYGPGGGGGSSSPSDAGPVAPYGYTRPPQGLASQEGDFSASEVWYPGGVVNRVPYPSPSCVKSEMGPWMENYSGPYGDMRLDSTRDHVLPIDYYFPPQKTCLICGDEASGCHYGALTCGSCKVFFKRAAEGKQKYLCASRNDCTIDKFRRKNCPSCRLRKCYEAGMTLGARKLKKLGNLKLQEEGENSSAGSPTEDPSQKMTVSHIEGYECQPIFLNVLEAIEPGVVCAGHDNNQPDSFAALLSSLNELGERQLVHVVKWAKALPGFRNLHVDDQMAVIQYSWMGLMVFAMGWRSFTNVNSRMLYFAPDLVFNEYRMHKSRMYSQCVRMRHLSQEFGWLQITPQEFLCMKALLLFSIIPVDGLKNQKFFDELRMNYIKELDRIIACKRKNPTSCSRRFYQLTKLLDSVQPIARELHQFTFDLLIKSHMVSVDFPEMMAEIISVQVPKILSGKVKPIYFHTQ", "type": "functional"}, "Histamine H1 receptor [6]": {"molecular_target": "T6, Histamine H1 receptor (Homo sapiens, UniProt P35367)", "T6 sequence (P35367 whole entry)": "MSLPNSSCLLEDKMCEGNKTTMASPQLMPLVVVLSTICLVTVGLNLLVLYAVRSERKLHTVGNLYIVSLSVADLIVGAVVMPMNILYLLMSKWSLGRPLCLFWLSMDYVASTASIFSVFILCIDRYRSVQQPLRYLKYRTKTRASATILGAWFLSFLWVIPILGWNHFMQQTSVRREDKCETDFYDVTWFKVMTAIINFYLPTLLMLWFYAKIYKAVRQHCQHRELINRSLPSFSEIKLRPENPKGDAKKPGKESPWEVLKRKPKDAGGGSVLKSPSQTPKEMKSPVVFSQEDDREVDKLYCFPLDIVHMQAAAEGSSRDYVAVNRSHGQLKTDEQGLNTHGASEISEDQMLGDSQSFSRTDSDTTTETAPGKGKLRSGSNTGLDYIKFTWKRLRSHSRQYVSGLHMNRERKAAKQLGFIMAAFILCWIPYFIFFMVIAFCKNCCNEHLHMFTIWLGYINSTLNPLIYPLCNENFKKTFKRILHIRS", "type": "functional, cell-based"}, "Histamine H1 receptor [7]": {"molecular_target": "T6, Histamine H1 receptor", "type": "functional, cell-based", "remark": "listed apart in the source"}},
  "data": [
    {"smiles": "CCOC(=O)[C@H](CCc1ccccc1)N[C@@H](C)C(=O)N1CCC[C@H]1C(=O)O", "values": [
      {"measurement": "AC50", "setting": "[1]", "result": "> 10", "unit": "µM"}
    ]},
    {"smiles": "CC(C)Cc1ccc(CC(=O)O)cc1", "note": "[IBUFENAC]", "values": [
      {"measurement": "AC50", "setting": "[2]", "result": "> 30", "unit": "µM"}
    ]},
    {"smiles": "CC(=O)c1ccc2c(c1)N(CCCN1CCN(CCO)CC1)c1ccccc1S2", "note": "[ACETOPHENAZINE]", "values": [
      {"measurement": "AC50", "setting": "D(1A) dopamine receptor", "result": 0.1, "unit": "µM"}
    ]},
    {"smiles": "CC(C)C(=O)Nc1ccc([N+](=O)[O-])c(C(F)(F)F)c1", "note": "[FLUTAMIDE]", "values": [
      {"measurement": "AC50", "setting": "[3]", "result": "> 30", "unit": "µM"},
      {"measurement": "AC50", "setting": "[4]", "result": "> 30", "unit": "µM"},
      {"measurement": "AC50", "setting": "D(1A) dopamine receptor", "result": "> 30", "unit": "µM"},
      {"measurement": "AC50", "setting": "[5]", "result": "> 30", "unit": "µM"}
    ]},
    {"smiles": "NC(N)=Nc1nc(CSCCC(N)=NS(N)(=O)=O)cs1", "note": "[FAMOTIDINE]", "values": [
      {"measurement": "AC50", "setting": "[1]", "result": "> 10", "unit": "µM"}
    ]},
    {"smiles": "CCCS(=O)(=O)Nc1ccc(F)c(C(=O)c2c[nH]c3ncc(-c4ccc(Cl)cc4)cc23)c1F", "note": "[VEMURAFENIB]", "values": [
      {"measurement": "AC50", "setting": "Androgen receptor", "result": "> 30", "unit": "µM"}
    ]},
    {"smiles": "NS(=O)(=O)c1cc2c(cc1Cl)NCNS2(=O)=O", "note": "[HYDROCHLOROTHIAZIDE]", "values": [
      {"measurement": "AC50", "setting": "[1]", "result": "> 10", "unit": "µM"}
    ]},
    {"smiles": "NC(=O)c1cnccn1", "note": "[PYRAZINAMIDE]", "values": [
      {"measurement": "AC50", "setting": "[3]", "result": "> 30", "unit": "µM"},
      {"measurement": "AC50", "setting": "[4]", "result": "> 30", "unit": "µM"},
      {"measurement": "AC50", "setting": "D(1A) dopamine receptor", "result": "> 30", "unit": "µM"},
      {"measurement": "AC50", "setting": "[5]", "result": "> 30", "unit": "µM"}
    ]},
    {"smiles": "CC(C(=O)O)c1ccc(N2CC=CC2)c(Cl)c1", "note": "(configuration not stated) [PIRPROFEN]", "values": [
      {"measurement": "AC50", "setting": "Histamine H1 receptor [6]", "result": "> 30", "unit": "µM"},
      {"measurement": "AC50", "setting": "Histamine H1 receptor [7]", "result": "> 30", "unit": "µM"}
    ]},
    {"smiles": "CC(C)NNC(=O)c1ccncc1", "note": "[IPRONIAZID]", "values": [
      {"measurement": "AC50", "setting": "[2]", "result": "> 30", "unit": "µM"}
    ]},
    {"smiles": "CO/N=C(\\C(=O)N[C@@H]1C(=O)N2C(C(=O)[O-])=C(C[N+]3(C)CCCC3)CS[C@H]12)c1csc(N)n1", "values": [
      {"measurement": "AC50", "setting": "[2]", "result": "> 300", "unit": "µM"},
      {"measurement": "AC50", "setting": "Androgen receptor", "result": "> 30", "unit": "µM"}
    ]},
    {"smiles": "COC(=O)[C@@H]1CC2=CC(=O)CC[C@]2(C)[C@@]23O[C@@H]2C[C@@]2(C)[C@@H](CC[C@@]24CCC(=O)O4)[C@H]13", "note": "[EPLERENONE]", "values": [
      {"measurement": "AC50", "setting": "Histamine H1 receptor [6]", "result": "> 30", "unit": "µM"},
      {"measurement": "AC50", "setting": "[2]", "result": "> 30", "unit": "µM"},
      {"measurement": "AC50", "setting": "Histamine H1 receptor [7]", "result": "> 30", "unit": "µM"}
    ]},
    {"smiles": "O=C(CCCCCCC(=O)Nc1ccccc1)NO", "note": "[VORINOSTAT]", "values": [
      {"measurement": "AC50", "setting": "Histamine H1 receptor [6]", "result": "> 30", "unit": "µM"},
      {"measurement": "AC50", "setting": "[1]", "result": "> 10", "unit": "µM"},
      {"measurement": "AC50", "setting": "Histamine H1 receptor [7]", "result": "> 30", "unit": "µM"}
    ]},
    {"smiles": "COC(=O)N[C@H](C(=O)N1CCC[C@H]1c1nc(-c2ccc(-c3ccc(-c4c[nH]c([C@@H]5CCCN5C(=O)[C@@H](NC(=O)OC)C(C)C)n4)cc3)cc2)c[nH]1)C(C)C", "values": [
      {"measurement": "AC50", "setting": "Androgen receptor", "result": "> 30", "unit": "µM"}
    ]},
    {"smiles": "Nc1nc(N)c2nc(-c3ccccc3)c(N)nc2n1", "values": [
      {"measurement": "AC50", "setting": "[3]", "result": "> 30", "unit": "µM"},
      {"measurement": "AC50", "setting": "[4]", "result": "> 30", "unit": "µM"},
      {"measurement": "AC50", "setting": "D(1A) dopamine receptor", "result": "> 30", "unit": "µM"},
      {"measurement": "AC50", "setting": "[5]", "result": "> 30", "unit": "µM"},
      {"measurement": "AC50", "setting": "[1]", "result": "> 10", "unit": "µM"},
      {"measurement": "AC50", "setting": "Androgen receptor", "result": "> 3", "unit": "µM"}
    ]},
    {"smiles": "Oc1ncnc2[nH]ncc12", "note": "[ALLOPURINOL]", "values": [
      {"measurement": "AC50", "setting": "[3]", "result": "> 30", "unit": "µM"},
      {"measurement": "AC50", "setting": "[4]", "result": "> 30", "unit": "µM"},
      {"measurement": "AC50", "setting": "D(1A) dopamine receptor", "result": "> 30", "unit": "µM"},
      {"measurement": "AC50", "setting": "[5]", "result": "> 30", "unit": "µM"}
    ]},
    {"smiles": "COc1ccc2c(c1)C(=O)N(CCc1ccc(S(=O)(=O)NC(=O)NC3CCCCC3)cc1)C(=O)C2(C)C", "note": "[GLIQUIDONE]", "values": [
      {"measurement": "AC50", "setting": "Androgen receptor", "result": "> 30", "unit": "µM"}
    ]}
  ]
}
